Assay results as given in the supplement of paper PMC8960247.
Structures can show the parent of a compound that is named as a salt. ± gives the standard error.

Legend:
621-102 (TSC2-deficient) = test: relative viability vs DMSO; higher = less cytotoxic; settings: serum: 10% FBS, 72 h
621-103 (TSC2-rescued) = test: as above; settings: serum: 10% FBS, 72 h
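Also: immortalized renal angiomyolipoma cells stably carrying empty vector or TSC2, dosed in 384-well plates in DMEM, viability normalized to vehicle-treated wells within each plate.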

Row | Structure (SMILES) | relative viability (621-102 (TSC2-deficient); 0.0001 µM) | relative viability (621-102 (TSC2-deficient); 0.001 µM) | relative viability (621-102 (TSC2-deficient); 0.01 µM) | relative viability (621-102 (TSC2-deficient); 0.1 µM) | relative viability (621-102 (TSC2-deficient); 1 µM) | relative viability (621-102 (TSC2-deficient); 10 µM) | relative viability (621-103 (TSC2-rescued); 0.0001 µM) | relative viability (621-103 (TSC2-rescued); 0.001 µM) | relative viability (621-103 (TSC2-rescued); 0.01 µM) | relative viability (621-103 (TSC2-rescued); 0.1 µM) | relative viability (621-103 (TSC2-rescued); 1 µM) | relative viability (621-103 (TSC2-rescued); 10 µM)
1 | CC(C)(C)NC(=O)[C@H]1CC[C@H]2[C@@H]3CC[C@H]4NC(=O)C=C[C@]4(C)[C@H]3CC[C@]12C [Finasteride] | 112 ± 1.9% | 114 ± 4% | 106 ± 2% | 99.13 ± 0.73% | 92.7 ± 2% | 92.5 ± 2.9% | 102.7 ± 0.88% | 101 ± 1.6% | 102.1 ± 0.43% | 101.2 ± 0.15% | 101.2 ± 0.59% | 99.6 ± 0.87%
2 | CN1CC[C@H](c2c(O)cc(O)c3c(=O)cc(-c4ccccc4Cl)oc23)[C@H](O)C1 [Flavopiridol (Alvocidib)] | 104 ± 1.3% | 104.1 ± 0.59% | 95.5 ± 5% | 45.4 ± 1.9% | 11.3 ± 0.76% | 11.7 ± 0.13% | 103 ± 4.3% | 100.4 ± 0.89% | 102.2 ± 0.86% | 55.26 ± 0.43% | 17.8 ± 0.22% | 21.81 ± 0.19%
3 | CN1CC[C@H](c2c(O)cc(O)c3c(=O)cc(-c4ccccc4Cl)oc23)[C@H](O)C1 [Flavopiridol HCl] | 103 ± 1.6% | 98.59 ± 0.27% | 93.1 ± 5.7% | 49.2 ± 0.89% | 10.5 ± 0.34% | 10.1 ± 1.1% | 91.4 ± 6.3% | 88 ± 1.4% | 90.7 ± 3.4% | 55.2 ± 0.46% | 13 ± 0.61% | 11 ± 0.25%
4 | CN1CCN(c2c(F)cc3c(=O)c(C(=O)O)cn(CCF)c3c2F)CC1 [Fleroxacin (Quinodis)] | 104 ± 1.2% | 111 ± 3.5% | 102 ± 2.7% | 91.53 ± 0.47% | 90.9 ± 1.1% | 91.6 ± 4.7% | 96.7 ± 2.6% | 92.52 ± 0.83% | 92.3 ± 1.4% | 98.4 ± 1.5% | 105 ± 5% | 109 ± 1.7%
5 | Nc1nc(=O)[nH]cc1F [Flucytosine (Ancobon)] | 92.9 ± 2.9% | 99.4 ± 1.2% | 103.85 ± 0.042% | 102.2 ± 0.19% | 98.4 ± 4.1% | 92.5 ± 3.2% | 105.5 ± 0.24% | 101 ± 3.4% | 104.5 ± 0.84% | 106 ± 1.2% | 103 ± 1.4% | 98.9 ± 4.4%
6 | Nc1nc(F)nc2c1ncn2[C@@H]1O[C@H](CO)[C@@H](O)[C@@H]1O [Fludarabine (Fludara)] | 101 ± 3.9% | 92 ± 1.4% | 106 ± 1.3% | 100.6 ± 0.41% | 94.7 ± 5.7% | 86.22 ± 0.37% | 108 ± 4.5% | 92.6 ± 8.1% | 102 ± 1.6% | 102.9 ± 1% | 102.8 ± 0.34% | 86.6 ± 8%
7 | Nc1nc(F)nc2c1ncn2[C@@H]1O[C@H](COP(=O)(O)O)[C@@H](O)[C@@H]1O [Fludarabine Phosphate] | 98.1 ± 1.6% | 105 ± 1.1% | 101.7 ± 0.47% | 106 ± 1.9% | 96.4 ± 7.2% | 94 ± 1.7% | 104 ± 2.1% | 104 ± 2.7% | 103.3 ± 0.34% | 102.6 ± 0.82% | 100 ± 1.7% | 89.1 ± 6.1%
8 | CNCCC(Oc1ccc(C(F)(F)F)cc1)c1ccccc1 (stereo unspecified) [Fluoxetine HCl] | 101.3 ± 0.38% | 100 ± 1.8% | 109 ± 2.5% | 107 ± 2.1% | 99.3 ± 1.1% | 86.9 ± 2.2% | 100 ± 4.3% | 109 ± 2% | 106 ± 1.8% | 99.6 ± 1.9% | 104 ± 1.3% | 70.9 ± 2%
9 | CC(C)n1c(/C=C/C(O)CC(O)CC(=O)O)c(-c2ccc(F)cc2)c2ccccc21 (stereo unspecified) [Fluvastatin Sodium] | 102 ± 1.5% | 106 ± 3.3% | 105 ± 1.1% | 101 ± 3.1% | 100 ± 2.8% | 73.38 ± 0.72% | 102 ± 2.2% | 95.8 ± 2.6% | 99.5 ± 4.6% | 100 ± 2.1% | 71.8 ± 4.7% | 32.19 ± 0.096%
10 | C[C@]12CCC(=O)C(O)=C1CC[C@@H]1[C@@H]2CC[C@]2(C)C(=O)CC[C@@H]12 [Formestane] | 105 ± 1.1% | 113 ± 3.5% | 120 ± 4.2% | 94.73 ± 0.3% | 98.9 ± 1.5% | 109 ± 0.99% | 105 ± 4% | 102.8 ± 0.63% | 105.2 ± 0.81% | 102 ± 1.2% | 101 ± 3.9% | 102.4 ± 0.89%
11 | C[C@]12CC[C@@H]3c4ccc(O)cc4C[C@@H](CCCCCCCCC[S+]([O-])CCCC(F)(F)C(F)(F)F)[C@H]3[C@@H]1CC[C@@H]2O (stereo partly specified) [Fulvestrant] | 119.5 ± 0.33% | 117.7 ± 1% | 115 ± 2.2% | 114.7 ± 0.26% | 120 ± 3.1% | 113 ± 3.3% | 104 ± 1.3% | 101.5 ± 0.32% | 100 ± 1.9% | 102.2 ± 0.13% | 103 ± 1.7% | 104 ± 1.2%
12 | CS(=O)(=O)c1ccc(C(=O)Nc2ccc(Cl)c(-c3ccccn3)c2)c(Cl)c1 [GDC-0449 (Vismodegib)] | 103 ± 2.5% | 111.7 ± 0.39% | 111.9 ± 0.39% | 111 ± 2.7% | 116.2 ± 0.59% | 104 ± 1.8% | 100.4 ± 1% | 100 ± 1.6% | 103 ± 1.6% | 102.1 ± 0.15% | 103.2 ± 0.18% | 102 ± 0.43%
13 | OCCn1cc(-c2ccc3c(c2)CC/C3=N\O)c(-c2ccncc2)n1 [GDC-0879] | 101.5 ± 0.2% | 102 ± 1.7% | 107 ± 2.4% | 102 ± 2.6% | 108 ± 1.7% | 92.1 ± 2% | 101.6 ± 0.87% | 97.76 ± 0.82% | 98.9 ± 1.5% | 99.06 ± 0.76% | 96.15 ± 0.42% | 100.41 ± 0.061%
14 | CS(=O)(=O)N1CCN(Cc2cc3nc(-c4cccc5[nH]ncc45)nc(N4CCOCC4)c3s2)CC1 [GDC-0941] | 106 ± 1.4% | 114 ± 2.3% | 114.7 ± 0.27% | 111 ± 2.6% | 97 ± 1.1% | 53.69 ± 0.36% | 98.45 ± 0.81% | 100 ± 2.2% | 98.08 ± 0.38% | 97.2 ± 2.3% | 83.3 ± 0.97% | 37.9 ± 0.47%
15 | Cc1c(CN2CCN(C(=O)[C@H](C)O)CC2)sc2c(N3CCOCC3)nc(-c3cnc(N)nc3)nc12 [GDC-0980 (RC7422)] | 101 ± 1.1% | 114 ± 1.6% | 99.9 ± 1.4% | 89.64 ± 0.5% | 39.1 ± 1% | 23.3 ± 0.98% | 100.8 ± 0.26% | 98.64 ± 0.9% | 91.5 ± 5.1% | 75.5 ± 4.4% | 35.3 ± 2.2% | 30.2 ± 2%
16 | O=C(O)Cc1cccc(OCCCN(Cc2cccc(C(F)(F)F)c2Cl)CC(c2ccccc2)c2ccccc2)c1 [GW3965] | 89.3 ± 0.92% | 88.7 ± 4% | 86.8 ± 4.3% | 86.31 ± 0.36% | 77.5 ± 4% | 86.9 ± 5.4% | 107 ± 1.3% | 108 ± 3.5% | 110.7 ± 1% | 106 ± 4.5% | 99.6 ± 5.4% | 101 ± 3.5%
17 | CC[N+](CC)(CC)CCOc1cccc(OCC[N+](CC)(CC)CC)c1OCC[N+](CC)(CC)CC [Gallamine triethiodide (Flaxedil)] | 105 ± 2.9% | 109.1 ± 0.49% | 103 ± 3.5% | 102.6 ± 0.87% | 103.6 ± 0.17% | 89 ± 2% | 99.9 ± 4.2% | 87.2 ± 3% | 103 ± 1.7% | 92.4 ± 3.8% | 87.3 ± 1.9% | 99.6 ± 4.1%
18 | COc1cc2ncnc(Nc3ccc(F)c(Cl)c3)c2cc1OCCCN1CCOCC1 [Gefitinib] | 111 ± 1.2% | 105.6 ± 0.46% | 106.5 ± 0.3% | 96.3 ± 4.1% | 100 ± 1.1% | 84.7 ± 1.8% | 101 ± 1.8% | 101 ± 1.2% | 102 ± 1.6% | 99.7 ± 1.1% | 99.2 ± 1.2% | 76.4 ± 3.7%
